Here are results for three compounds from publication PMC4324493, “Synthesis, ^68Ga-Radiolabeling, and Preliminary In Vivo Assessment of a Depsipeptide-Derived Compound as a Potential PET/CT Infection Imaging Agent” (BioMed Research International, 2015).

Residues, ends and D or L forms follow the SMILES beside them. No end group written: not given here. *: point of attachment. DOTA = O=C(O)CN1CCN(CC(=O)O)CCN(CC(=O)*)CCN(CC(=O)O)CC1

The subject of series [1] is Staphylococcus aureus (ATCC 25923) (S. aur). Put plainly: Bacterial association assay (MALDI-TOF-MS), S. aur. It is filed as binding. As to conditions: for affinity binding constant (K): S. aur 1.5 × 10^8 CFU, 20-100 μM compound, 37°C, 3 h, MALDI-TOF-MS; for bacterial binding and internalization (qualitative): S. aur, membrane-associated (sample 1) and cell-internalized (sample 2) fractions by MALDI-TOF-MS. How it is done: (§1) MALDI-TOF-MS analysis was performed on an Autoflex III MALDI-TOF mass spectrometer (Bruker, Coventry, United Kingdom) with a 337 nm nitrogen laser operating in a linear mode at an accelerated voltage of 20 kV. The α-cyano-4-hydroxycinnamic acid matrix was applied: the matrix solution was prepared by making a saturated solution of the matrix powder into TA30 solution (30% ACN and 70% water containing 0.1% TFA). A MALDI plate-sandwich method was used by spotting the compounds between spots of matrix solution. Analyses were done in triplicates; spectra were collected manually and the mass peak intensities were recorded. S. aur and E. coli strains were cultured at 37°C overnight and tested with the peptide (TBIA101), the peptide-conjugate (DOTA-TBIA101), and the gallium(III)-complexed derivative (^natGa-DOTA-TBIA101). The bacterial concentration was kept at 1.5 × 10^8 colony forming units (CFU). Five different concentrations (20, 40, 60, 80, and 100 μM) of the above-mentioned compounds were used for all experiments, following the described method. The final reaction volume was 600 μL. Bacteria and compound mixtures were incubated at 37°C in an orbital shaker at 100 rpm for 3 h. After incubation, the cells were centrifuged at 3000 ×g for 20 min and the supernatant was removed. The bacterial pellet was washed twice with 200 μL of phosphate buffered saline (pH 7.4) and 200 μL of 80% ACN containing 0.1% TFA was added to dissolve the pellet followed by vigorous mixing followed by centrifugation at 3000 ×g for 20 min. The supernatant (sample 1) was collected, representing the membrane-associated compound fraction. The residual pellet was treated with 200 μL of 80% ACN (sample 2), representing the cell-internalized compound fraction. Bacterial persistence in samples 1 and 2 was qualified with MALDI-TOF-MS.

A short description of another series: in vitro. The format is cell-based. Particulars: human; for CC50 at 120 h: MT-4 cells. How it is done: The reduction of 2,3-bis-(2-methoxy-4-nitro-5-sulfophenyl)-2-H-tetrazolium-5-carboxanilide (XTT) was used to determine the cellular cytotoxicity of TBIA101, DOTA-TBIA101, and ^natGa-DOTA-TBIA101, as described by Scudiero et al.. MT-4 cells were obtained through the NIH AIDS Reagent Program, Division of AIDS, NIAID, NIH: MT-4 from Dr. Douglas Richman and were cultured and all incubations were done in RPMI medium containing 10% fetal calf serum at 37°C and 5% CO2-atmosphere. A 6 × 10^5 cells/mL concentration was used to seed cells into 96-well culture plates (total cell number of 2 × 10^4 per well) followed by exposure to eight 5-fold dilutions of the stock compound solutions (1 mg/mL). The plates were incubated for 5 days before XTT was added to react for 4 h. Formazan production was quantified, measuring absorbance at 450 nm (reference wavelength 620 nm), and related to the absorbance of untreated control cells (RPMI background). Cytotoxicity was determined by extrapolating the inhibitory concentration at 50% (IC50).

In the next series the test system is E. coli (ATCC 25922). As to the kind of experiment: Bacterial association assay (MALDI-TOF-MS), E. coli. It is filed as binding, Escherichia coli. Particulars: for Kd: E. coli 1.5 × 10^8 CFU, 20-100 μM compound, 37°C, 3 h, MALDI-TOF-MS, read-out: affinity binding constant (K); for bacterial binding and internalization (qualitative): E. coli, membrane-associated (sample 1) and cell-internalized (sample 2) fractions by MALDI-TOF-MS. The protocol: as §1

Regarding `CC[C@H](C)[C@H](NC(=O)CNC(=O)CNC(=O)CN1CCN(CC(=O)O)CCN(CC(=O)O)CCN(CC(=O)O)CC1)C(=O)N[C@H](C(=O)N[C@@H](CC(C)C)C(=O)N[C@H](C(=O)N1CCC[C@H]1C(=O)N[C@@H](CC(C)C)C(=O)N1CCC[C@H]1C(N)=O)C(C)C)[C@@H](C)O` [DOTA-TBIA101] ({DOTA}-GGITLVPLP-NH2), in series [1], the affinity binding constant (K) was found to be 0.029 ± 0.006 nM; the “bacterial binding and internalization (qualitative)” value was “binding and no detectable internalization”. Besides, half-maximal cytotoxicity in “in vitro” (CC50 at 120 h) was put at 42.1 µM. Also, in the series with E. coli (ATCC 25922), the Kd was determined as 0.028 ± 0.006 nM; the “bacterial binding and internalization (qualitative)” value was “binding and no detectable internalization”.
Regarding `CC[C@H](C)[C@H](NC(=O)[C@@H](NC(=O)[C@H](CC(C)C)NC(=O)[C@@H](NC(=O)[C@@H]1CCCN1C(=O)[C@H](CC(C)C)NC(=O)[C@@H]1CCCN1C(=O)CN1CCN(CC(=O)O)CCN(CC(=O)O)CCN(CC(=O)O)CC1)C(C)C)[C@@H](C)O)C(=O)NCC(=O)NCC(N)=O` [natGa-DOTA-TBIA101, metal not drawn] ({DOTA}-PLPVLTIGG-NH2), in series [1], the affinity binding constant (K) was determined as 2.97 ± 0.86 nM; the “bacterial binding and internalization (qualitative)” value was “internalization”. Besides, it took 33.7 µM to reach half-maximal inhibition in the series “in vitro” (IC50 at 5 days). In the series with E. coli (ATCC 25922), the Kd was determined as 2.58 ± 1.04 nM; the “bacterial binding and internalization (qualitative)” value is given as “internalization”.
As to “GGITLVPLP-NH2 (C-terminus assumed) [TBIA101]”, in series [1], the affinity binding constant (K) turned out to be 0.023 ± 0.007 nM; the “bacterial binding and internalization (qualitative)” value is “binding and internalization”. The CC50 at 120 h in “in vitro” was found to be 63.2 µM. Also, in the series on E. coli (ATCC 25922), the Kd was determined as 0.022 ± 0.006 nM; the “bacterial binding and internalization (qualitative)” value is “binding and internalization”.

For orientation: CC50 means the concentration at which the toxic effect on the cells reaches its halfway point. Higher therefore signals better tolerance by the cells. By IC50 is commonly meant the midpoint of a concentration-inhibition curve. Higher therefore signals weaker potency.
